Data published in paper PMC10112504, “Novel 4-thiophenyl-pyrazole, pyridine, and pyrimidine derivatives as potential antitumor candidates targeting both EGFR and VEGFR-2; design, synthesis, biological evaluations, and in silico studies” (RSC Advances, 2023).

Columns and labels:
HepG2 = experiment: Cell cycle analysis by flow cytometry; format: cell-based; conditions: HepG2 treated with 10b at 13.81 μM; control 36.19%
MCF-7 = experiment: Anti-proliferative activity, SRB colorimetric assay; format: cell-based
Method: (§1) The antitumor activities of the newly synthesized derivatives against two cancer cell lines (HepG-2 and MCF-7). Both cell lines were purchased from ATCC (American Type Culture Collection) via the holding company for biological products and vaccines (VACSERA, Cairo, Egypt). The cytotoxicity was assessed using the SRB colorimetric assay.[47]

P. aeuroginosa = experiment: Antibacterial activity, inhibition zone approach; format: cell-based, Pseudomonas aeuroginosa
Excerpt: (§2) They were all tested against Gram-positive bacteria such as Staphylococcus aureus and Bacillus subtilis as well as Gram-negative bacteria such as Escherichia coli and Pseudomonas aeuroginosa. Also, the antifungal activity was investigated against Candida albicans and Aspergillus flavus strains. Gentamycin was used as the standard antibacterial drug whereas ketoconazole was regarded as the primary antifungal one.
(§3) They were all tested against Gram-positive bacteria such as S. aureus and B. subtilis as well as Gram-negative bacteria such as E. coli and P. aeuroginosa. Also, the antifungal activity was investigated against C. albicans and A. flavus subtypes. Gentamycin was used as the standard antibacterial drug whereas ketoconazole was regarded as the primary antifungal one.

E. coli = experiment: Antibacterial activity, inhibition zone approach; format: cell-based, Escherichia coli
Excerpt: as §2, §3

HepG-2 [1] = experiment: Apoptosis analysis, FITC Annexin-V/PI kit; format: cell-based; conditions: HepG-2 treated with 10b at 13.81 μM
Excerpt: This was accompanied by significant elevations in the percentage of the AnxV-FITC apoptotic cells in both the early (from 0.36 to 14.52%) and late (from 0.21 to 24.45%) apoptotic phases, compared to the control (Fig. 5 and 6). Accordingly, we can confirm the exact mechanism of the anticancer activity of 10b to be due to the programmed apoptosis pathway.
This was done using the FITC Annexin-V/PI kit.[49]

C. albicans = experiment: Antifungal activity, inhibition zone approach; format: cell-based, Candida albicans
Excerpt: as §2, §3

VEGFR-2 = VEGFR-2 (Homo sapiens, UniProt P35968); experiment: VEGFR-2 inhibitory activity, homogeneous luminescence release assay; format: biochemical; conditions: reference sorafenib; read-out: VEGFR-2 inhibition IC50
Sequence of VEGFR-2 (P35968 20-1356): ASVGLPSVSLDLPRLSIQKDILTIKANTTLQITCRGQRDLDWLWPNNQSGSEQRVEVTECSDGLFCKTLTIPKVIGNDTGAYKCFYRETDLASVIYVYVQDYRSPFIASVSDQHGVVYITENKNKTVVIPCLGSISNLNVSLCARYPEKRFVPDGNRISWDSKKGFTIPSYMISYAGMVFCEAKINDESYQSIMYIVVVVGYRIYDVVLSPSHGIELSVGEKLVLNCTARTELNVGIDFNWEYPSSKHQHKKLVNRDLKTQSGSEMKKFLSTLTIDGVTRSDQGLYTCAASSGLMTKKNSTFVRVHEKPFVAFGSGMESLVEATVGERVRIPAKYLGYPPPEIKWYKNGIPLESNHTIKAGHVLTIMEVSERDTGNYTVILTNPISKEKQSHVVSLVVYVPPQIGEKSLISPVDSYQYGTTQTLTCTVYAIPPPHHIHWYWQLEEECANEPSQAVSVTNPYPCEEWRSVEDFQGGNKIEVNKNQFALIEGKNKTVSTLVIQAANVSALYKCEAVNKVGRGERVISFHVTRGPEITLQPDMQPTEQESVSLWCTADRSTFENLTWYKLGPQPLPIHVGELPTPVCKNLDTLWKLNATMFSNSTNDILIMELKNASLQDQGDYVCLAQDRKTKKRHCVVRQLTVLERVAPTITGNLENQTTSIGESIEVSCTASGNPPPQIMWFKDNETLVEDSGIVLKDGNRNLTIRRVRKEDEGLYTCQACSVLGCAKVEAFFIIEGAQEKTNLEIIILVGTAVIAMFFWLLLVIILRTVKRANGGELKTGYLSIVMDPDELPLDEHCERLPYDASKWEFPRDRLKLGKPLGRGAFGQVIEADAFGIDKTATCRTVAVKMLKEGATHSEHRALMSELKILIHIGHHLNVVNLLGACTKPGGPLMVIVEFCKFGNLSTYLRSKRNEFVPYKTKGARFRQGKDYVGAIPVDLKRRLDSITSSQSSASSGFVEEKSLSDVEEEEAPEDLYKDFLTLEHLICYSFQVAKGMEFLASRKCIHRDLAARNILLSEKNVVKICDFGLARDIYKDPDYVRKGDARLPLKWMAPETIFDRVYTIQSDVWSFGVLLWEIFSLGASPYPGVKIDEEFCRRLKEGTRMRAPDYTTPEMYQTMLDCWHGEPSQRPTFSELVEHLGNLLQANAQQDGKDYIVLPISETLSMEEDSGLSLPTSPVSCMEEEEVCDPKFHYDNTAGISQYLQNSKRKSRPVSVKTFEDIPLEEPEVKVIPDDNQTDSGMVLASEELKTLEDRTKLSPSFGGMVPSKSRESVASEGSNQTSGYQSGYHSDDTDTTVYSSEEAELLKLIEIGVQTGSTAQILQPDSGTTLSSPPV
Excerpt: […]. Briefly, these μM inhibitory concentrations recommend greatly the proposed rationale design for the investigated compounds to act as promising dual EGFR/VEGFR-2 inhibitors.

EGFR = EGFR (Homo sapiens, UniProt P00533); experiment: EGFR inhibitory activity, homogeneous luminescence release assay; format: biochemical; conditions: reference erlotinib; read-out: EGFR inhibition IC50
Sequence of EGFR (P00533 25-1210): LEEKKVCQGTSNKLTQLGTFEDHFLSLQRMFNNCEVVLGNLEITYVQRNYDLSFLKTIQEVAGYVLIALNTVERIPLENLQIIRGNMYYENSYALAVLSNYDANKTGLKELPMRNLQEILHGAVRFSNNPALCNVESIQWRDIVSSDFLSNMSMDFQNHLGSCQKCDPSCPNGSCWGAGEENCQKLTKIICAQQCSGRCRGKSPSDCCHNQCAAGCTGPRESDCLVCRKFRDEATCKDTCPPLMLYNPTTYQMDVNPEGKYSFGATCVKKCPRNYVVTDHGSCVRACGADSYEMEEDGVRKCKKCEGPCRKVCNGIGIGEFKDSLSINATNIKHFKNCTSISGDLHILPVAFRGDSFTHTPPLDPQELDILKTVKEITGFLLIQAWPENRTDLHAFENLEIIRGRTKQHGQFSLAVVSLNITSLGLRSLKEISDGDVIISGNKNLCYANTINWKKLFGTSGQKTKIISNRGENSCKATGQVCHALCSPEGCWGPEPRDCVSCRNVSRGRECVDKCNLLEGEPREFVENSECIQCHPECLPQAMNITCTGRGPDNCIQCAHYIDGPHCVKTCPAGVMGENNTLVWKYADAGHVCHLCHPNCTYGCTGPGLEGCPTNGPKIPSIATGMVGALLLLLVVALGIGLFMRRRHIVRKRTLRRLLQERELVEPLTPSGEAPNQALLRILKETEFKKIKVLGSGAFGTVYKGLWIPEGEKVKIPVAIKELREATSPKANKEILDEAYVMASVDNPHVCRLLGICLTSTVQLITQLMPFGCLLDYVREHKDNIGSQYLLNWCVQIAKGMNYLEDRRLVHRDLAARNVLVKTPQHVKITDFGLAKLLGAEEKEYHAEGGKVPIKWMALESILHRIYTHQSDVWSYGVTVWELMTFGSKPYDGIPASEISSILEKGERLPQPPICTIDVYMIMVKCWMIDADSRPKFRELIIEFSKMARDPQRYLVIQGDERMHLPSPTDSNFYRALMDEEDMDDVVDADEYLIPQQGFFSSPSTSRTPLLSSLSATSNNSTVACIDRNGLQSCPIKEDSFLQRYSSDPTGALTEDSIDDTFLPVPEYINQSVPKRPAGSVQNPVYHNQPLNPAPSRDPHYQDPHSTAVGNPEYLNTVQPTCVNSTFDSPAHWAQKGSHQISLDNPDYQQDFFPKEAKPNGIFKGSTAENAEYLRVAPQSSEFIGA

HepG-2 [2] = experiment: Anti-proliferative activity, SRB colorimetric assay; format: cell-based
Method: as §1

A. flavus = experiment: Antifungal activity, inhibition zone approach; format: cell-based, Aspergillus flavus
Excerpt: as §2, §3

B. subtilis = experiment: Antibacterial activity, inhibition zone approach; format: cell-based, Bacillus subtilis
Excerpt: as §2, §3

S. aureus = experiment: Antibacterial activity, inhibition zone approach; format: cell-based, Staphylococcus aureus
[3] = authors' grading of Table 1 values, key not given
[4] = authors' grading of Table 2 values, key not given

## NC(=S)n1nc(-c2ccc(Cl)c(Cl)c2)cc1-c1cccs1 [10b, 3-(3,4-dichlorophenyl)-5-(thiophen-2-yl)-1H-pyrazole-1-carbothioamide]
HepG2
  fold change of S phase population compared to control: 1.37 fold
MCF-7; Homo sapiens, MCF7, MCF-7 cancer cell line, SRB assay, read-out: Cell lines (IC50 μM) MCF-7
  IC50: 23.2 ± 1.8 µM
MCF-7; [3]
  anti-proliferative activity against MCF-7, in words: moderate
P. aeuroginosa; Gram-negative bacteria
  P. aeuroginosa Diameter of inhibition zone (mm): 13 mm
P. aeuroginosa; [4]
  antimicrobial activity with P. aeuroginosa, in words: very strong
P. aeuroginosa; gentamicin = 100
  P. aeuroginosa % Activity index: 68.4%
E. coli; Gram-negative bacteria
  E. coli Diameter of inhibition zone (mm): 9 mm
E. coli; [4]
  antimicrobial activity with E. coli, in words: moderate
E. coli; gentamicin = 100
  E. coli % Activity index: 42.8%
HepG-2 [1]; control 0.21%
  AnxV-FITC apoptotic cells, late apoptotic phase: 24.45%
HepG-2 [1]; control 1.75
  total apoptosis percentage: 44.26%
HepG-2 [1]; control […]
  AnxV-FITC apoptotic cells, early apoptotic phase: 14.52%
C. albicans; Fungi
  C. albicans Diameter of inhibition zone (mm): 20 mm
C. albicans; [4]
  antimicrobial activity with C. albicans, in words: very strong
C. albicans; ketoconazole = 100
  C. albicans % Activity index: 71.4%
VEGFR-2
  IC50: 0.141 µM
EGFR
  IC50: 0.161 µM
HepG-2 [2]; Homo sapiens, HepG2, HepG-2 cancer cell line, SRB assay, read-out: Cell lines (IC50 μM) HepG-2
  IC50: 13.8 ± 1.1 µM
HepG-2 [2]; [3]
  anti-proliferative activity against HepG-2, in words: strong
A. flavus; Fungi
  A. flavus Diameter of inhibition zone (mm): 14 mm
A. flavus; [4]
  antimicrobial activity with A. flavus, in words: moderate
A. flavus; ketoconazole = 100
  A. flavus % Activity index: 53.8%
B. subtilis; Gram-positive bacteria
  B. subtilis Diameter of inhibition zone (mm): 17 mm
B. subtilis; [4]
  antimicrobial activity with B. subtilis, in words: very strong
B. subtilis; gentamicin = 100
  B. subtilis % Activity index: 77.3%
S. aureus; Gram-positive bacteria
  S. aureus Diameter of inhibition zone (mm): 12 mm
S. aureus; [4]
  antimicrobial activity with S. aureus, in words: very strong
S. aureus; gentamicin = 100
  S. aureus % Activity index: 66.7%
